Experimental findings from patent publication US10183936B2, “Hepatitis B core protein allosteric modulators” (priority 2014, dated 2019) are described below.

In data set [1] the test system is HBV viral production in AD38 cells. Kind of data set: Viral load production in AD38 cells by quantitative PCR of the HBV core sequence in supernatant. The class given is cell-based. The following applies: Hepatitis B virus, 144 h; 10 μM compound, 6 days at 37° C., viral load in supernatant compared against DMSO control wells; read-out: AD38 Viral Load (CpAM/DMSO %) at 10 μM. In outline:
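AD38 cells seeded at 50,000/well, treated 6 days at 37° C with compound added as 10× solution in 10% DMSO. HBV core sequence in clarified supernatant quantified by TaqMan qPCR against known standards; viral load compared with DMSO control wells.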

For another data set, the system named is AD38 cells. The data set is described as follows: Viability of AD38 cells (Promega CellTiter-Glo) at the end of compound treatment. Format: cell-based. The following applies: 10 μM compound, 6 days, luminescence normalized against DMSO control wells (controls being 100%). In outline:
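AD38 cells seeded at 50,000/well received compound from a 10× solution in 10% DMSO and were incubated 6 days at 37° C. Viability was then read by CellTiter-Glo luminescence in tetracycline-free medium with 2% FBS and 1% DMSO, normalized to DMSO control wells (100%) and reported as percent viability.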

Regarding `O=C(NCCc1ccccn1)c1ccc2c(c1)NC(=O)c1c(F)cccc1S2` [Compound 1471], the activity at 10 µM in data set [1] amounted to 16%. In addition, the “AD38 Viability Normalized Result (CPAM/DMSO %) at 10 μM” value in the data set on AD38 cells amounted to 97%.
For `O=C(Nc1cccc(-c2ccccc2)c1)c1ccc2c(c1)NC(=O)c1c(F)cccc1S2` [Compound 1472], in that order: 37% and 95%.
For `O=C1Nc2cc(S(=O)(=O)NCc3cncnc3)ccc2Sc2ccccc21` [Compound 1473], in that order: 81% and 97%.
Take `O=C(NCCc1ccccn1)c1ccc2c(c1)NC(=O)c1ccccc1N2Cc1ccccc1` [Compound 1474]: the activity at 10 µM in data set [1] turned out to be 51%. For the same compound, the “AD38 Viability Normalized Result (CPAM/DMSO %) at 10 μM” value in the data set with AD38 cells amounted to 101%.
The matching figures for `O=C(NCCc1cccnc1)c1ccc2c(c1)NC(=O)c1ccccc1N2Cc1ccccc1` [Compound 1475]: 47% and 107%.
The matching figures for `O=C(NCCc1ccc(-c2ccccc2)cc1)c1ccc2c(c1)NC(=O)c1ccccc1[S+]2[O-]` (centres unmarked) [Compound 1476]: 1% and 86%.
Regarding `CN(C)S(=O)(=O)c1ccc(CCNC(=O)c2ccc3c(c2)NC(=O)c2c(F)cccc2S3)cc1` [Compound 1477], in data set [1], the activity at 10 µM is 67%. Also, the “AD38 Viability Normalized Result (CPAM/DMSO %) at 10 μM” value in the data set on AD38 cells was 16%.
The matching figures for `Cc1c(C(=O)NCc2cncnc2)ccc2c1NC(=O)c1ccccc1S2` [Compound 1478]: 2% and 94%.
The matching figures for `O=C(Nc1ncc(-c2ccccc2)o1)c1ccc2c(c1)NC(=O)c1cc(F)ccc1S2` [Compound 1480]: 72% and 95%.
The matching figures for `O=C(Nc1ncc(-c2ccccc2)s1)c1ccc2c(c1)NC(=O)c1cc(F)ccc1S2` [Compound 1481]: 46% and 100%.
Regarding `O=C(NCc1cncnc1)c1ccc2c(c1)NC(=O)c1ccccc1N2Cc1ccccc1` [Compound 1482], the activity at 10 µM in data set [1] was 46%. In addition, in the data set with AD38 cells, the “AD38 Viability Normalized Result (CPAM/DMSO %) at 10 μM” value is given as 98%.
`O=C(NCCc1ccc(-c2ccccc2)cc1)c1ccc2c(c1)NC(=O)c1ccccc1N2Cc1ccccc1` [Compound 1483]: the activity at 10 µM in data set [1] came to 65%. Further, in the data set with AD38 cells, the “AD38 Viability Normalized Result (CPAM/DMSO %) at 10 μM” value is reported as 98%.
Take `O=C(Nc1cccc(-c2ccccc2)c1)c1ccc2c(c1)NC(=O)c1ccccc1N2Cc1ccccc1` [Compound 1484]: the activity at 10 µM in data set [1] was 26%. Also, in the data set with AD38 cells, the “AD38 Viability Normalized Result (CPAM/DMSO %) at 10 μM” value was found to be 100%.
For `O=C(NCCc1cnco1)c1ccc2c(c1)NC(=O)c1ccccc1[S+]2[O-]` (centres unmarked) [Compound 1485], in that order: 30% and 96%.
The matching figures for `CN(C)S(=O)(=O)c1ccc(CCNC(=O)c2ccc3c(c2)NC(=O)c2ccccc2[S+]3[O-])cc1` (centres unmarked) [Compound 1486]: 53% and 94%.
For `O=C(NCCc1cnco1)c1ccc2c(c1)NC(=O)c1cccc(F)c1S2` [Compound 1487], in that order: 15% and 96%.
In the case of `CN(C)S(=O)(=O)c1ccc(CCNC(=O)c2ccc3c(c2)NC(=O)c2cccc(F)c2S3)cc1` [Compound 1488], the activity at 10 µM in data set [1] was determined as 84%. In addition, the “AD38 Viability Normalized Result (CPAM/DMSO %) at 10 μM” value in the data set on AD38 cells is listed as 97%.
The matching figures for `O=C(NCc1cccnc1)c1ccc2c(c1)NC(=O)c1c(F)cccc1S2` [Compound 1490]: 7% and 79%.
`O=C(NCCc1ccc(-c2ccccc2)cc1)c1cc2c(cc1F)Sc1ccccc1C(=O)N2` [Compound 1491]: the activity at 10 µM in data set [1] was found to be 39%. For the same compound, in the data set with AD38 cells, the “AD38 Viability Normalized Result (CPAM/DMSO %) at 10 μM” value is given as 80%.
The matching figures for `O=C(NCc1cnco1)c1ccc2c(c1)NC(=O)c1ccccc1N2Cc1ccccc1` [Compound 1492]: 39% and 79%.
Take `O=C(NCc1cccnc1)c1ccc2c(c1)NC(=O)c1ccccc1N2Cc1ccccc1` [Compound 1493]: in data set [1], the activity at 10 µM stood at 51%. Also, the “AD38 Viability Normalized Result (CPAM/DMSO %) at 10 μM” value in the data set on AD38 cells is listed as 80%.
The matching figures for `O=C(Nc1ccncc1)c1ccc2c(c1)NC(=O)c1ccccc1N2Cc1ccccc1` [Compound 1494]: 115% and 60%.
For `Cc1c(C(=O)NCCc2ccc(-c3ccccc3)cc2)ccc2c1NC(=O)c1ccccc1S2` [Compound 1495], in that order: 9% and 77%.
For `Cc1c(C(=O)Nc2cccc(-c3ccccc3)c2)ccc2c1NC(=O)c1ccccc1S2` [Compound 1496], in that order: 2% and 18%.
As for `O=C1Nc2c(cc(F)c(C(=O)NCCc3ccc(-c4ccccc4)cc3)c2F)Sc2ccccc21` [Compound 1497], in data set [1], the activity at 10 µM turned out to be 9%. Also, the “AD38 Viability Normalized Result (CPAM/DMSO %) at 10 μM” value with AD38 cells came to 49%.
For `CN1c2ccc(C(=O)NCCc3ccccn3)cc2NC(=O)c2ccccc21` [Compound 1498], in that order: 1% and 82%.
As for `CN1c2ccc(C(=O)NCc3cccnc3)cc2NC(=O)c2ccccc21` [Compound 1499], in data set [1], the activity at 10 µM was 2%. In addition, in the data set with AD38 cells, the “AD38 Viability Normalized Result (CPAM/DMSO %) at 10 μM” value turned out to be 84%.
Take `O=C1Nc2cc(COCCc3ccccc3)ccc2Sc2ccccc21` [Compound 1501, 8-(phenethoxymethyl) dibenzo [b,f] [1,4] thiazepin-11(10H)-one]: the activity at 10 µM in data set [1] amounted to 37%. In the data set on AD38 cells, the “AD38 Viability Normalized Result (CPAM/DMSO %) at 10 μM” value amounted to 71%.
The matching figures for `Cc1nnc(NC(=O)c2ccc3c(c2)NC(=O)c2cc(F)ccc2S3)o1` [Compound 1503]: 40% and 87%.
For `O=C1Nc2cc(S(=O)(=O)Nc3cncnc3)ccc2Sc2ccccc21` [Compound 1505], in that order: 81% and 85%.
The matching figures for `O=C1Nc2cc(S(=O)(=O)Nc3cncnc3)ccc2[S+]([O-])c2ccccc21` (centres unmarked) [Compound 1506]: 72% and 85%.
For `CN(C)S(=O)(=O)c1ccc(CCNC(=O)c2cc3c(cc2F)Sc2ccccc2C(=O)N3)cc1` [Compound 1507], in data set [1], the activity at 10 µM stood at 11%. In the data set on AD38 cells, the “AD38 Viability Normalized Result (CPAM/DMSO %) at 10 μM” value is on record as 96%.
The matching figures for `O=C(Nc1ccncc1)c1cc2c(cc1F)Sc1ccccc1C(=O)N2` [Compound 1508]: 31% and 81%.
Take `O=C(Nc1cccc(-c2ccccc2)c1)c1cc2c(cc1F)Sc1ccccc1C(=O)N2` [Compound 1509]: in data set [1], the activity at 10 µM was found to be 15%. The “AD38 Viability Normalized Result (CPAM/DMSO %) at 10 μM” value in the data set on AD38 cells is on record as 29%.
For `O=C(NCc1cncs1)c1ccc2c(c1)NC(=O)c1ccccc1N2Cc1ccccc1` [Compound 1510], in that order: 62% and 82%.
As to `O=C(NCCc1cncs1)c1ccc2c(c1)NC(=O)c1ccccc1N2Cc1ccccc1` [Compound 1511], in data set [1], the activity at 10 µM was determined as 38%. Also, the “AD38 Viability Normalized Result (CPAM/DMSO %) at 10 μM” value in the data set on AD38 cells is reported as 85%.
For `CN(C)S(=O)(=O)c1ccc(CCNC(=O)c2ccc3c(c2)NC(=O)c2ccccc2N3Cc2ccccc2)cc1` [Compound 1512], the activity at 10 µM in data set [1] stood at 27%. In the data set on AD38 cells, the “AD38 Viability Normalized Result (CPAM/DMSO %) at 10 μM” value came to 99%.
For `Cc1c(C(=O)NCc2cncs2)ccc2c1NC(=O)c1ccccc1S2` [Compound 1513], in that order: 2% and 82%.
The matching figures for `Cc1c(C(=O)NCc2cnco2)ccc2c1NC(=O)c1ccccc1S2` [Compound 1514]: 13% and 84%.
For `Cc1c(C(=O)NCc2cccnc2)ccc2c1NC(=O)c1ccccc1S2` [Compound 1515], in that order: 2% and 82%.
Turning to `Cc1c(C(=O)Nc2ccncc2)ccc2c1NC(=O)c1ccccc1S2` [Compound 1516], the activity at 10 µM in data set [1] came to 30%. The “AD38 Viability Normalized Result (CPAM/DMSO %) at 10 μM” value in the data set on AD38 cells worked out at 82%.
For `Cc1c(C(=O)NCCc2ccc(S(=O)(=O)N(C)C)cc2)ccc2c1NC(=O)c1ccccc1S2` [Compound 1517], in that order: 2% and 78%.
For `O=C1Nc2c(cc(F)c(C(=O)NCc3cncnc3)c2F)Sc2ccccc21` [Compound 1518], in that order: 67% and 85%.
Take `O=C1Nc2c(cc(F)c(C(=O)NCCc3ccccn3)c2F)Sc2ccccc21` [Compound 1519]: in data set [1], the activity at 10 µM is 73%. Besides, the “AD38 Viability Normalized Result (CPAM/DMSO %) at 10 μM” value in the data set on AD38 cells came to 81%.
For `CN1c2ccc(C(=O)NCc3cncnc3)cc2NC(=O)c2ccccc21` [Compound 1520], in that order: 1% and 81%.
As to `CN1c2ccc(C(=O)NCCc3ccc(-c4ccccc4)cc3)cc2NC(=O)c2ccccc21` [Compound 1521], in data set [1], the activity at 10 µM came to 1%. The “AD38 Viability Normalized Result (CPAM/DMSO %) at 10 μM” value in the data set with AD38 cells was 22%.
